Here are results for one compound from publication PMC5218480 (PLoS ONE, 2017).

Structures are written as SMILES.

This test deals with MV-4-11 cells. The experiment in a line: Gene expression microarray analysis (Affymetrix PrimeView) and GSEA. Details: RFU PODN (11730768_x_at) / Fold change /veh PODN (11730768_x_at) / RFU LINC00158 (11744669_a_at) / Fold change /veh LINC00158 (11744669_a_at) / RFU DUSP10 (11751237_a_at) / Fold change /veh DUSP10 (11751237_a_at) / RFU ID3 (11757404_x_at) / Fold change /veh ID3 (11757404_x_at) / RFU PLEKHG5 (11737974_s_at) / Fold change /veh PLEKHG5 (11737974_s_at) / RFU LRRC4B (11730491_at) / Fold change /veh LRRC4B (11730491_at) / RFU GIMAP4 (11747438_a_at) / Fold change /veh GIMAP4 (11747438_a_at) / RFU KRT8 (11758183_x_at) / Fold change /veh KRT8 (11758183_x_at) / RFU CNN1 (11734310_a_at) / Fold change /veh CNN1 (11734310_a_at) / RFU VPS37D (11726825_at) / Fold change /veh VPS37D (11726825_at) / RFU C10orf10 (11716522_x_at) / Fold change /veh C10orf10 (11716522_x_at) / RFU KIR2DL2 /// KIR2DL4 /// KIR2DL5A /// KIR2DL5B /// KIR2DS1 /// KIR2DS2 /// KIR2DS3 /// KIR2DS4 /// KIR3DL3 /// KIR3DL3 /// KIR3DS1 (11738374_at) / Fold change /veh KIR2DL2 /// KIR2DL4 /// KIR2DL5A /// KIR2DL5B /// KIR2DS1 /// KIR2DS2 /// KIR2DS3 /// KIR2DS4 /// KIR3DL3 /// KIR3DL3 /// KIR3DS1 (11738374_at) / RFU C1QL1 (11718748_at) / Fold change /veh C1QL1 (11718748_at) / RFU TMPRSS4 (11747572_a_at) / Fold change /veh TMPRSS4 (11747572_a_at) / RFU HAMP (11756126_x_at) / Fold change /veh HAMP (11756126_x_at) / RFU RNFT2 (11725882_a_at) / Fold change /veh RNFT2 (11725882_a_at) / RFU NR4A2 (11747474_a_at) / Fold change /veh NR4A2 (11747474_a_at) / RFU ABCC12 (11746883_a_at) / Fold change /veh ABCC12 (11746883_a_at) / RFU TMEM136 (11760407_x_at) / Fold change /veh TMEM136 (11760407_x_at) / RFU CLDN22 /// WWC2 (11732394_at) / Fold change /veh CLDN22 /// WWC2 (11732394_at) / RFU HLA-DPB1 (11760878_x_at) / Fold change /veh HLA-DPB1 (11760878_x_at) / RFU SPINT1 (11716480_a_at) / Fold change /veh SPINT1 (11716480_a_at) / RFU GAP43 (11754022_s_at) / Fold change /veh GAP43 (11754022_s_at) / RFU A4GNT (11735810_at) / Fold change /veh A4GNT (11735810_at) / RFU PRB3 (11715151_x_at) / Fold change /veh PRB3 (11715151_x_at) / RFU TUBB4B (11761932_at) / Fold change /veh TUBB4B (11761932_at) / RFU CAPN14 (11732068_a_at) / Fold change /veh CAPN14 (11732068_a_at) / RFU TMCC2 (11721928_a_at) / Fold change /veh TMCC2 (11721928_a_at) / RFU IRGQ (11745062_a_at) / Fold change /veh IRGQ (11745062_a_at) / RFU FAM174B (11720279_a_at) / Fold change /veh FAM174B (11720279_a_at) / RFU TMPRSS4 (11748680_a_at) / Fold change /veh TMPRSS4 (11748680_a_at) / RFU FAM212B (11763350_a_at) / Fold change /veh FAM212B (11763350_a_at) / RFU PLEKHG5 (11743358_a_at) / Fold change /veh PLEKHG5 (11743358_a_at) / RFU ZSCAN30 (11745921_a_at) / Fold change /veh ZSCAN30 (11745921_a_at) / RFU CMKLR1 (11741424_a_at) / Fold change /veh CMKLR1 (11741424_a_at) / RFU LOC101060620 /// MAPK8IP1 (11723275_at) / Fold change /veh LOC101060620 /// MAPK8IP1 (11723275_at) / RFU SPTSSB (11747773_x_at) / Fold change /veh SPTSSB (11747773_x_at) / RFU PRSS12 (11739890_at) / Fold change /veh PRSS12 (11739890_at) / RFU BIN1 (11741810_x_at) / Fold change /veh BIN1 (11741810_x_at) / RFU WNT11 (11732464_a_at) / Fold change /veh WNT11 (11732464_a_at) / RFU C10orf10 (11716521_a_at) / Fold change /veh C10orf10 (11716521_a_at) / RFU C5orf56 (11738089_at) / Fold change /veh C5orf56 (11738089_at) / RFU CYB561 (11721691_x_at) / Fold change /veh CYB561 (11721691_x_at) / RFU ANKRD19P (11752326_a_at) / Fold change /veh ANKRD19P (11752326_a_at) / RFU OR2T12 /// OR2T33 /// OR2T8 (11738714_s_at) / Fold change /veh OR2T12 /// OR2T33 /// OR2T8 (11738714_s_at) / RFU VCAN (11748164_a_at) / Fold change /veh VCAN (11748164_a_at) / RFU JSRP1 (11732532_at) / Fold change /veh JSRP1 (11732532_at) / RFU KRTAP10-11 (11738290_x_at) / Fold change /veh KRTAP10-11 (11738290_x_at) / RFU MYO3A (11730013_a_at) / Fold change /veh MYO3A (11730013_a_at) / RFU EBF3 (11725865_a_at) / Fold change /veh EBF3 (11725865_a_at) / RFU CAMK2N1 (11719241_x_at) / Fold change /veh CAMK2N1 (11719241_x_at) / RFU C5orf56 (11738088_a_at) / Fold change /veh C5orf56 (11738088_a_at) / RFU OLFML3 (11715873_a_at) / Fold change /veh OLFML3 (11715873_a_at) / RFU LOC100653217 /// NTM (11731650_a_at) / Fold change /veh LOC100653217 /// NTM (11731650_a_at) / RFU MAPK11 (11762145_a_at) / Fold change /veh MAPK11 (11762145_a_at) / RFU FIZ1 (11724087_x_at) / Fold change /veh FIZ1 (11724087_x_at) / RFU OASL (11726364_x_at) / Fold change /veh OASL (11726364_x_at) / RFU SOX15 (11748057_x_at) / Fold change /veh SOX15 (11748057_x_at) / RFU CD79A (11719716_a_at) / Fold change /veh CD79A (11719716_a_at) / RFU HIST1H1D (11736915_at) / Fold change /veh HIST1H1D (11736915_at) / RFU CASKIN2 (11723855_a_at) / Fold change /veh CASKIN2 (11723855_a_at) / RFU LOC730098 (11760151_x_at) / Fold change /veh LOC730098 (11760151_x_at) / RFU OR4N2 (11742367_at) / Fold change /veh OR4N2 (11742367_at) / RFU PRRT2 (11749266_a_at) / Fold change /veh PRRT2 (11749266_a_at) / RFU SNX32 (11753110_a_at) / Fold change /veh SNX32 (11753110_a_at) / RFU CDHR5 (11726645_a_at) / Fold change /veh CDHR5 (11726645_a_at) / RFU RCAN1 (11760418_a_at) / Fold change /veh RCAN1 (11760418_a_at) / RFU FAM167A (11723789_a_at) / Fold change /veh FAM167A (11723789_a_at) / RFU FAM26E (11764081_at) / Fold change /veh FAM26E (11764081_at) / RFU ISYNA1 (11749810_s_at) / Fold change /veh ISYNA1 (11749810_s_at) / RFU ACY1 (11761880_at) / Fold change /veh ACY1 (11761880_at) / RFU 11764098_at / Fold change /veh 11764098_at / RFU SAMD14 (11745864_x_at) / Fold change /veh SAMD14 (11745864_x_at) / RFU NPB (11741838_a_at) / Fold change /veh NPB (11741838_a_at) / RFU TMPRSS6 (11731388_a_at) / Fold change /veh TMPRSS6 (11731388_a_at) / RFU KRTAP10-2 (11738614_at) / Fold change /veh KRTAP10-2 (11738614_at) / RFU ARHGAP8 /// PRR5-ARHGAP8 (11727945_x_at) / Fold change /veh ARHGAP8 /// PRR5-ARHGAP8 (11727945_x_at) / RFU KRTAP5-7 /// NADSYN1 (11734609_at) / Fold change /veh KRTAP5-7 /// NADSYN1 (11734609_at) / RFU RASL12 (11751679_a_at) / Fold change /veh RASL12 (11751679_a_at) / RFU CDKN2B (11736163_a_at) / Fold change /veh CDKN2B (11736163_a_at) / RFU PRF1 (11729649_at) / Fold change /veh PRF1 (11729649_at) / RFU, ZNF638 /// ZNF638-IT1 / Fold change vs veh, ZNF638 /// ZNF638-IT1 / RFU, PANK3 / Fold change vs veh, PANK3 / RFU, SH3YL1 / Fold change vs veh, SH3YL1 / RFU, ZEB2 / Fold change vs veh, ZEB2 / RFU, NRIP1 / Fold change vs veh, NRIP1 / RFU, PTTG1IP / Fold change vs veh, PTTG1IP / RFU, CAPN2 / Fold change vs veh, CAPN2 / RFU, MED14 / Fold change vs veh, MED14 / RFU, SNORA58 / Fold change vs veh, SNORA58 / RFU, C1orf63 / Fold change vs veh, C1orf63 / RFU, LRRFIP1 / Fold change vs veh, LRRFIP1 / RFU, NDUFAF7 / Fold change vs veh, NDUFAF7 / RFU, SLC12A2 / Fold change vs veh, SLC12A2 / RFU, IBTK / Fold change vs veh, IBTK / RFU, ESF1 / Fold change vs veh, ESF1 / Fold change vs veh, TMEM50B / RFU, TAOK1 / Fold change vs veh, TAOK1 / RFU, ACBD3 / Fold change vs veh, ACBD3 / RFU, TMA16 / Fold change vs veh, TMA16 / RFU, RWDD3 / Fold change vs veh, RWDD3 / RFU, BCAT1 / Fold change vs veh, BCAT1 / RFU, EDEM3 / Fold change vs veh, EDEM3 / RFU, TMEM33 / Fold change vs veh, TMEM33 / RFU, WDR75 / Fold change vs veh, WDR75 / RFU, AHCTF1 / Fold change vs veh, AHCTF1 / RFU, TFRC / Fold change vs veh, TFRC / RFU, ZDHHC17 / Fold change vs veh, ZDHHC17 / RFU, NOM1 / Fold change vs veh, NOM1 / RFU, ARL8B / Fold change vs veh, ARL8B / RFU, ZBTB11 / Fold change vs veh, ZBTB11 / RFU, TAMM41 / Fold change vs veh, TAMM41 / RFU, KIAA1704 /// LOC100996395 / Fold change vs veh, KIAA1704 /// LOC100996395 / RFU, ING1 / Fold change vs veh, ING1 / RFU, TRMT61B / Fold change vs veh, TRMT61B / RFU, FUBP3 / Fold change vs veh, FUBP3 / RFU, TP53 / Fold change vs veh, TP53 / RFU, TNKS2 / Fold change vs veh, TNKS2 / RFU, ZFP14 / Fold change vs veh, ZFP14 / RFU, ACTR2 / Fold change vs veh, ACTR2 / RFU, PPP3R1 / Fold change vs veh, PPP3R1 / RFU, PIK3R1 / Fold change vs veh, PIK3R1 / RFU, HNRNPA1 / Fold change vs veh, HNRNPA1 / RFU, RNF170 / Fold change vs veh, RNF170 / RFU, ZNF28 / Fold change vs veh, ZNF28 / RFU, RNGTT / Fold change vs veh, RNGTT / RFU, OGT / Fold change vs veh, OGT / RFU, BRD1 / Fold change vs veh, BRD1 / RFU, MARS / Fold change vs veh, MARS / RFU, ZNF655 / Fold change vs veh, ZNF655 / RFU, FAHD1 / Fold change vs veh, FAHD1 / RFU, BDP1 / Fold change vs veh, BDP1 / RFU, LRRCC1 / Fold change vs veh, LRRCC1 / RFU, ARID1A / Fold change vs veh, ARID1A / RFU, ZNF146 / Fold change vs veh, ZNF146 / RFU, ZNF330 / Fold change vs veh, ZNF330 / RFU, GPN3 / Fold change vs veh, GPN3 / RFU, C9orf123 / Fold change vs veh, C9orf123 / RFU, N4BP2L2 / Fold change vs veh, N4BP2L2 / RFU, ARFIP1 / Fold change vs veh, ARFIP1 / RFU, FAM179B / Fold change vs veh, FAM179B / RFU, BCL10 / Fold change vs veh, BCL10 / RFU, UHRF1BP1L / Fold change vs veh, UHRF1BP1L / RFU, BET1 / Fold change vs veh, BET1 / RFU, CNOT2 / Fold change vs veh, CNOT2 / RFU, ZNF268 / Fold change vs veh, ZNF268 / Fold change vs veh, ZNF507 / RFU, DGCR2 / Fold change vs veh, DGCR2 / RFU, WDSUB1 / Fold change vs veh, WDSUB1 / Fold change vs veh, HSP90B1 /// MIR3652 / RFU, ADSS / Fold change vs veh, ADSS / RFU, GK / Fold change vs veh, GK / RFU, ZNF148 / Fold change vs veh, ZNF148 / RFU, TAF9 / Fold change vs veh, TAF9 / RFU, SLC1A5 / Fold change vs veh, SLC1A5 / RFU, SLMO2 / Fold change vs veh, SLMO2 / RFU, ABCC4 / Fold change vs veh, ABCC4 / RFU, LOC101060439 /// RAP1B / Fold change vs veh, LOC101060439 /// RAP1B / RFU, RFX7 / Fold change vs veh, RFX7 / RFU, GTPBP10 / Fold change vs veh, GTPBP10 / RFU, CNEP1R1 / Fold change vs veh, CNEP1R1 / RFU, BIVM-ERCC5 /// ERCC5 / Fold change vs veh, BIVM-ERCC5 /// ERCC5 / RFU, ILF3 / Fold change vs veh, ILF3 / RFU 11762660_at / Fold change /veh 11762660_at / RFU VCAN (11757783_s_at) / Fold change /veh VCAN (11757783_s_at) / RFU DDX43 (11728927_at) / Fold change /veh DDX43 (11728927_at) / RFU KRT8 (11758188_x_at) / Fold change /veh KRT8 (11758188_x_at) / RFU NKD1 (11759106_at) / Fold change /veh NKD1 (11759106_at) / RFU SRD5A1 (11742802_a_at) / Fold change /veh SRD5A1 (11742802_a_at) / RFU TPSAB1 /// TPSB2 (11721975_s_at) / Fold change /veh TPSAB1 /// TPSB2 (11721975_s_at) / RFU GSTM3 (11746129_a_at) / Fold change /veh GSTM3 (11746129_a_at) / RFU IL23R (11737362_x_at) / Fold change /veh IL23R (11737362_x_at) / RFU TMEM51 (11727254_a_at) / Fold change /veh TMEM51 (11727254_a_at) / RFU PIWIL2 (11732686_x_at) / Fold change /veh PIWIL2 (11732686_x_at) / RFU ORM1 (11744905_x_at) / Fold change /veh ORM1 (11744905_x_at) / RFU CCDC152 (11743942_at) / Fold change /veh CCDC152 (11743942_at) / RFU ECM1 (11717891_a_at) / Fold change /veh ECM1 (11717891_a_at) / RFU IL23R (11748794_a_at) / Fold change /veh IL23R (11748794_a_at) / RFU TNFAIP8L3 (11732012_x_at) / Fold change /veh TNFAIP8L3 (11732012_x_at) / RFU MBOAT4 (11741988_at) / Fold change /veh MBOAT4 (11741988_at) / RFU 11764193_at / Fold change /veh 11764193_at / RFU TMEM53 (11763286_at) / Fold change /veh TMEM53 (11763286_at) / RFU MAGEB2 (11727129_at) / Fold change /veh MAGEB2 (11727129_at) / RFU TMEM200A (11744735_a_at) / Fold change /veh TMEM200A (11744735_a_at) / RFU CCDC152 (11751479_a_at) / Fold change /veh CCDC152 (11751479_a_at) / RFU FAM211A (11726209_a_at) / Fold change /veh FAM211A (11726209_a_at) / RFU RGS16 (11746705_a_at) / Fold change /veh RGS16 (11746705_a_at) / RFU VCAN (11755009_s_at) / Fold change /veh VCAN (11755009_s_at) / RFU RHOB (11743442_s_at) / Fold change /veh RHOB (11743442_s_at) / RFU RGS16 (11720943_a_at) / Fold change /veh RGS16 (11720943_a_at) / RFU RGS16 (11720944_at) / Fold change /veh RGS16 (11720944_at) / RFU, VPS4B / Fold change vs veh, VPS4B / RFU, CREB1 / Fold change vs veh, CREB1 / RFU, DNAJC13 / Fold change vs veh, DNAJC13 / RFU, GNAQ / Fold change vs veh, GNAQ / RFU, CDK5R1 / Fold change vs veh, CDK5R1 / RFU, ZRANB3 / Fold change vs veh, ZRANB3 / RFU, CUL4A / Fold change vs veh, CUL4A / RFU, CCNY / Fold change vs veh, CCNY / RFU, UFL1 / Fold change vs veh, UFL1 / RFU, COG3 / Fold change vs veh, COG3 / RFU, DIAPH2 / Fold change vs veh, DIAPH2 / RFU, SKA2 / Fold change vs veh, SKA2 / RFU, AFF3 / Fold change vs veh, AFF3 / RFU, LMF1 / Fold change vs veh, LMF1 / RFU, IPO11 / Fold change vs veh, IPO11 / RFU, DFFB / Fold change vs veh, DFFB / RFU, FOXP1 / Fold change vs veh, FOXP1 / RFU, CARD8 / Fold change vs veh, CARD8 / RFU, STRN3 / Fold change vs veh, STRN3 / RFU, ADK / Fold change vs veh, ADK / RFU, RASSF2 / Fold change vs veh, RASSF2 / RFU, WIPF1 / Fold change vs veh, WIPF1 / RFU, LARP1B / Fold change vs veh, LARP1B / RFU, RASA1 / Fold change vs veh, RASA1 / RFU, RB1 / Fold change vs veh, RB1 / RFU, PPFIA1 / Fold change vs veh, PPFIA1 / RFU, MAT2A / Fold change vs veh, MAT2A / RFU, CCT5 / Fold change vs veh, CCT5 / RFU, WDR92 / Fold change vs veh, WDR92 / RFU, CUX1 / Fold change vs veh, CUX1 / RFU, TTC7A / Fold change vs veh, TTC7A / RFU, TMEM135 / Fold change vs veh, TMEM135 / RFU, DEPTOR / Fold change vs veh, DEPTOR / RFU, CPM / Fold change vs veh, CPM / RFU, DNAJB6 / Fold change vs veh, DNAJB6 / RFU, CACNA2D3 / Fold change vs veh, CACNA2D3 / RFU, DTX4 / Fold change vs veh, DTX4 / RFU, TFCP2 / Fold change vs veh, TFCP2 / RFU, GMCL1 /// GMCL1P1 / Fold change vs veh, GMCL1 /// GMCL1P1 / RFU, AEBP2 / Fold change vs veh, AEBP2 / RFU, SNHG1 /// SNORD22 /// SNORD25 /// SNORD26 /// SNORD27 /// SNORD28 /// SNORD29 /// SNORD31 / Fold change vs veh, SNHG1 /// SNORD22 /// SNORD25 /// SNORD26 /// SNORD27 /// SNORD28 /// SNORD29 /// SNORD31 / Fold change (Aza/veh), C12orf56 (ProbeSet 11735607_a_at) / Fold change (ACY-1035/veh), C12orf56 (ProbeSet 11735607_a_at) / Fold change (Aza/veh), FGFR1OP (ProbeSet 11751329_s_at) / Fold change (ACY-1035/veh), FGFR1OP (ProbeSet 11751329_s_at) / Fold change (Aza/veh), VPS36 (ProbeSet 11739960_a_at) / Fold change (ACY-1035/veh), VPS36 (ProbeSet 11739960_a_at) / RFU SYPL1 (11715823_x_at) / Fold change /veh SYPL1 (11715823_x_at) / RFU IGFBP7 (11715501_s_at) / Fold change /veh IGFBP7 (11715501_s_at) / RFU REEP3 (11722064_at) / Fold change /veh REEP3 (11722064_at) / RFU IGLL1 (11728026_x_at) / Fold change /veh IGLL1 (11728026_x_at): dose or concentration left out as unconfirmed. As to conditions: ProbeSet 11747888_a_at; LIST D. The class given is cell-based, human.

Take `Nc1ccc(-c2cccs2)cc1NC(=O)c1ccc2c(c1)cc(C1CC1)n2CCN1CCOCC1` [ACY-1035]: the “RFU, SH3YL1” value is 63.67 RFU.
